Data as given in patent US9624249B2, “Nucleoside kinase bypass compositions and methods” (Merck Sharp & Dohme Corp., priority 2013, dated 2017).
Like-named read-outs stand apart in the source and are kept apart here.

What was measured:
[1] = tested on: hepatitis virus C (HCV) genotype 1a; experiment: HCV subgenomic replicon assay (RHEPTAQ), genotype 1a; type: cell-based
Text: (§1) Table 3 and Table 4 summarize the measured activities of these prodrugs as assessed in a subgenomic replicon assay (RHEPTAQ), against genotypes 1a, 1b and 2a.

HIV-1 (H9IIIB virus) = experiment: Viking assay: multiple round HIV-1 infection assay in MT4-GFP cells; type: cell-based
Experimental: Assessing Antiviral Potency in a Multiple Round HIV-1 Infection Assay
The antiviral activity of the tenofovir prodrugs was assessed in a Viking assay performed as follows. HIV-1 replication was monitored using MT4-gag-GFP clone D3 (hereafter designate MT4-GFP), which are MT-4 cells modified to harbor a GFP reporter gene, the expression of which is dependent on the HIV-1 expressed proteins tat and rev. Productive infection of an MT4-GFP cell with HIV-1 results in GFP expression approximately 24 h post-infection.
MT4-GFP cells were maintained at 37° C./5% CO2/90% relative humidity in RPMI 1640 supplemented with 10% fetal bovine serum, 100 U/ml penicillin/streptomycin, and 400 μg/ml G418 to maintain the reporter gene. For infections, MT4-GFP cells were placed in the same medium lacking G418 and infected overnight with H9IIIB virus at an approximate multiplicity of infection of 0.01 in the same incubation conditions. Cells were then washed and resuspended in either RPMI 1640 containing 10% normal human serum at 1.6×10^5 cells/mL (10% NHS conditions) or in 100% normal human serum at 2×10^5 cells/mL (100% NHS conditions). Compound plates were prepared by dispensing compounds dissolved in DMSO into wells of 384 well poly D lysine-coated plates (0.2 μl/well) using an ECHO acoustic dispenser. Each compound was tested in a 10 point serial 3-fold dilution (typical final concentrations: 4.2 μM-0.21 nM). Controls included no inhibitor (DMSO only) and a combination of three antiviral agents (efavirenz, indinavir, and the integrase strand transfer inhibitor N1-ethyl-N1-((7S,10R)-2-((4-fluorobenzyl)-carbamoyl)-3-hydroxy-7-methoxy-4-oxo-4,6,7,8,9,10-hexahydropyrimido-[1,2-a]azepin-10-yl)-N2,N2-dimethyloxalamide at final concentrations of 4 μM each). Cells were added (50 μL/well) to compound plates and the infected cells were maintained at 37° C./5% CO2/90% relative humidity.
Infected cells were quantified at two time points, ˜48 h and ˜72 h post-infection, by counting the number of green cells in each well using an Acumen eX3 scanner. The increase in the number of green cells over ˜24 h period gives the reproductive ratio, R0, which is typically 5-15 and has been shown experimentally to be in logarithmic phase (data not shown) Inhibition of R0 is calculated for each well, and IC50s determined by non-linear 4-parameter curve fitting.

[2] = tested on: hepatitis virus C (HCV) genotype 1b; experiment: HCV subgenomic replicon assay (RHEPTAQ), genotype 1b; type: cell-based
Text: as §1

[3] = tested on: hepatitis virus C (HCV) genotype 2a; experiment: HCV subgenomic replicon assay (RHEPTAQ), genotype 2a; type: cell-based
Text: as §1

[4] = Human immunodeficiency virus 1, read-out: Viking IP
[5] = RHEPTAQ replicon, genotype 1a; read-out: EC50(1a)
[6] = RHEPTAQ replicon, genotype 1a; read-out: EC90(1a)
[7] = RHEPTAQ replicon, genotype 1b, read-out: EC50(1b)
[8] = RHEPTAQ replicon, genotype 1b, read-out: EC90(1b)
[9] = RHEPTAQ replicon, genotype 2a, read-out: EC50(2a)
[10] = RHEPTAQ replicon, genotype 2a, read-out: EC90(2a)
[11] = Hepatitis C virus, RHEPTAQ replicon, genotype 1a; read-out: EC50(1a)
[12] = Hepatitis C virus, RHEPTAQ replicon, genotype 1a; read-out: EC90(1a)
[13] = Hepatitis C virus, read-out: EC50(2a), RHEPTAQ replicon, genotype 2a
[14] = Hepatitis C virus, read-out: EC90(2a), RHEPTAQ replicon, genotype 2a
[15] = Human immunodeficiency virus 1, inhibition of reproductive ratio R0, MT4-GFP cells infected with H9IIIB, serum condition not stated, read-out: Viking IP
[16] = Hepatitis C virus, RHEPTAQ replicon, genotype 1b, read-out: EC50(1b)
[17] = Hepatitis C virus, RHEPTAQ replicon, genotype 1b, read-out: EC90(1b)
[18] = Hepatitis C virus, RHEPTAQ replicon, genotype 2a, read-out: EC90(2a)

C[C@@]1(O)[C@@H]2OP(=S)(OC3CSSC[C@@H]3OCc3ccccc3)OCC2O[C@H]1n1ccc(=O)[nH]c1=O (single isomer, unassigned) [drawing 110 isomer 1 and 2]
EC50 ([1]; read-out: EC50(1a); RHEPTAQ replicon, genotype 1a): 4 µM | EC90 ([1]; read-out: EC90(1a); RHEPTAQ replicon, genotype 1a): 8 µM

C[C@H](Cn1cnc2c(N)ncnc21)OCP(=O)(Oc1ccccc1F)OC1CSSC[C@@H]1OCc1ccccc1 (some centres unmarked) [Entry 2]
IC50 (HIV-1 (H9IIIB virus); [4]): 0.605 µM | CTG LD50 (CTG LD50 (cytotoxicity)): >8.403 µM

C[C@@]1(O)[C@@H]2OP(=O)(OC3CSSC[C@@H]3OCc3ccccc3)OCC2O[C@H]1n1ccc(=O)[nH]c1=O (single isomer, unassigned) [drawing 109 isomer 1]
EC50 [1, 5]: 0.07 µM | EC90 [1, 6]: 0.233 µM | EC50 [2, 7]: 0.11 µM | EC90 [2, 8]: 0.383 µM | EC50 [3, 9]: 0.09 µM | EC90 [3, 10]: 0.442 µM

COc1ccc(OP(=O)(CO[C@H](C)Cn2cnc3c(N)ncnc32)OC2CSSC[C@@H]2OCc2ccccc2)cc1 (some centres unmarked) [Entry 11]
IC50 (HIV-1 (H9IIIB virus); [4]): 2.92 µM | CTG LD50 (CTG LD50 (cytotoxicity)): >42.02 µM

C[C@H](Cn1cnc2c(N)ncnc21)OCP(=O)(Oc1cccc(F)c1)OC1CSSC[C@@H]1OCc1ccccc1 (some centres unmarked) [Entry 3]
IC50 (HIV-1 (H9IIIB virus); [4]): 0.62 µM | CTG LD50 (CTG LD50 (cytotoxicity)): >42.02 µM

Cc1ccc(OP(=O)(CO[C@H](C)Cn2cnc3c(N)ncnc32)OC2CSSC[C@@H]2OCc2ccccc2)cc1 (some centres unmarked) [Entry 9]
IC50 (HIV-1 (H9IIIB virus); [4]): 1.64 µM | CTG LD50 (CTG LD50 (cytotoxicity)): >42.02 µM

Cc1cccc(OP(=O)(CO[C@H](C)Cn2cnc3c(N)ncnc32)OC2CSSC[C@@H]2OCc2ccccc2)c1 (some centres unmarked) [Entry 8]
IC50 (HIV-1 (H9IIIB virus); [4]): 1.12 µM | CTG LD50 (CTG LD50 (cytotoxicity)): >42.02 µM

C[C@H](Cn1cnc2c(N)ncnc21)OCP(=O)(Oc1ccc(F)cc1)OC1CSSC[C@@H]1OCc1ccccc1 (some centres unmarked) [Entry 4]
IC50 (HIV-1 (H9IIIB virus); [4]): 2 µM | CTG LD50 (CTG LD50 (cytotoxicity)): >8.403 µM

C[C@@]1(O)[C@@H]2OP(=O)(OC3CSSC[C@@H]3OCc3ccccc3)OCC2O[C@H]1n1ccc(=O)[nH]c1=O (single isomer, unassigned) [drawing 109 isomer 3 and 4]
EC50 [1, 5]: 0.305 µM | EC90 [1, 6]: 0.782 µM | EC50 [2, 7]: 0.362 µM | EC90 [2, 8]: 0.783 µM | EC50 [3, 9]: 0.315 µM | EC90 [3, 10]: 1.07 µM

C#CCO[C@H]1CSSCC1OP(=O)(NCc1ccccc1)OCC1O[C@@H](n2ccc3c(N)ncnc32)[C@](C)(O)[C@@H]1O (some centres unmarked)
EC50 [1, 11]: 12.8 µM | EC90 [1, 12]: 25.5 µM | EC50 ([2]; Hepatitis C virus, read-out: EC50(1b), RHEPTAQ replicon, genotype 1b): 8.5 µM | EC90 ([2]; Hepatitis C virus, read-out: EC90(1b), RHEPTAQ replicon, genotype 1b): 17.7 µM | EC50 [3, 13]: 1.9 µM | EC90 [3, 14]: 7.9 µM

C[C@H](Cn1cnc2c(N)ncnc21)OCP(=O)(Oc1ccccc1Cl)OC1CSSC[C@@H]1OCc1ccccc1 (some centres unmarked) [Entry 7]
IC50 (HIV-1 (H9IIIB virus); [4]): 1.59 µM | CTG LD50 (CTG LD50 (cytotoxicity)): >8.403 µM

C[C@H](Cn1cnc2c(N)ncnc21)OCP(=O)(Oc1cccc(Cl)c1)OC1CSSC[C@@H]1OCc1ccccc1 (some centres unmarked) [Entry 6]
IC50 (HIV-1 (H9IIIB virus); [4]): 1.88 µM | CTG LD50 (CTG LD50 (cytotoxicity)): >8.403 µM

C[C@H](Cn1cnc2c(N)ncnc21)OCP(=O)(O)OC1CSSC[C@H]1OCc1ccccc1 (some centres unmarked) [Entry 16]
IC50 (HIV-1 (H9IIIB virus); [15]): > 8.4 µM

C[C@H](Cn1cnc2c(N)ncnc21)OCP(=O)(Oc1ccc(Cl)cc1)OC1CSSC[C@@H]1OCc1ccccc1 (some centres unmarked) [Entry 5]
IC50 (HIV-1 (H9IIIB virus); [4]): 1.59 µM | CTG LD50 (CTG LD50 (cytotoxicity)): >8.403 µM

C[C@H](Cn1cnc2c(N)ncnc21)OCP(=O)(O)OC1CSSC[C@@H]1OCc1ccccc1 (some centres unmarked) [Entry 15]
IC50 (HIV-1 (H9IIIB virus); [15]): > 8.4 µM

C#CCO[C@H]1CSSCC1OP1(=O)OCC2O[C@@H](n3ccc4c(N)ncnc43)[C@](C)(O)[C@@H]2O1 (some centres unmarked)
EC50 [1, 11]: 0.159 µM | EC90 [1, 12]: 0.991 µM | EC50 [2, 16]: 0.078 µM | EC90 [2, 17]: 0.318 µM | EC50 [3, 13]: 0.135 µM | EC90 [3, 14]: 0.115 µM

COc1cccc(OP(=O)(CO[C@H](C)Cn2cnc3c(N)ncnc32)OC2CSSC[C@@H]2OCc2ccccc2)c1 (some centres unmarked) [Entry 13]
IC50 (HIV-1 (H9IIIB virus); [4]): 1.81 µM | CTG LD50 (CTG LD50 (cytotoxicity)): >8.403 µM

Cc1ccccc1OP(=O)(CO[C@H](C)Cn1cnc2c(N)ncnc21)OC1CSSC[C@@H]1OCc1ccccc1 (some centres unmarked) [Entry 10]
IC50 (HIV-1 (H9IIIB virus); [4]): 2.92 µM | CTG LD50 (CTG LD50 (cytotoxicity)): >42.02 µM

C[C@@]1(O)[C@@H]2OP(=O)(OC3CSSC[C@@H]3OCc3ccccc3)OCC2O[C@H]1n1ccc(=O)[nH]c1=O (single isomer, unassigned) [drawing 109 isomer 2]
EC50 [1, 5]: 0.05 µM | EC90 [1, 6]: 0.154 µM | EC50 [2, 7]: 0.037 µM | EC90 [2, 8]: 0.245 µM | EC50 [3, 9]: 0.044 µM | EC90 [3, 10]: 0.244 µM

COCCOCCOCCO[C@H]1CSSCC1OP1(=O)OCC2O[C@@H](n3ccc4c(N)ncnc43)[C@](C)(O)[C@@H]2O1 (some centres unmarked)
EC50 [1, 11]: 1 µM | EC90 [1, 12]: 3.3 µM | EC50 [2, 16]: 0.183 µM | EC90 [2, 17]: 0.448 µM | EC50 ([3]; Hepatitis C virus, RHEPTAQ replicon, genotype 2a, read-out: EC50(2a)): 0.249 µM | EC90 [3, 18]: 0.896 µM

C[C@H](Cn1cnc2c(N)ncnc21)OCP(=O)(Oc1ccccc1)OC1CSSC[C@@H]1OCc1ccccc1 (some centres unmarked) [Entry 1]
IC50 (HIV-1 (H9IIIB virus); [4]): 1.27 µM | CTG LD50 (CTG LD50 (cytotoxicity)): >8.403 µM

C[C@H](Cn1cnc2c(N)ncnc21)OCP(=O)(Oc1ccccc1)OC1CSSC[C@H]1OCc1ccccc1 (some centres unmarked) [Entry 14]
IC50 (HIV-1 (H9IIIB virus); [4]): 1.27 µM | CTG LD50 (CTG LD50 (cytotoxicity)): >8.403 µM

COCCOCCOCCO[C@H]1CSSCC1OP1(=O)OCC2O[C@@H](n3ccc(=O)[nH]c3=O)[C@](C)(O)[C@@H]2O1 (single isomer, unassigned) [drawing 111 isomer 3 and 4]
EC50 [1, 5]: 7 µM | EC90 [1, 6]: 16 µM | EC50 [2, 7]: 4 µM | EC90 [2, 8]: 12 µM | EC50 [3, 9]: 14 µM | EC90 [3, 10]: 37 µM

COCCOCCOCCO[C@H]1CSSCC1OP1(=O)OCC2O[C@@H](n3ccc(=O)[nH]c3=O)[C@](C)(O)[C@@H]2O1 (single isomer, unassigned) [drawing 111 isomer 1 and 2]
EC50 [1, 11]: 4 µM | EC90 [1, 12]: 9 µM | EC50 [2, 16]: 2 µM | EC90 [2, 17]: 8 µM | EC90 [3, 18]: 21 µM | EC50 [3, 9]: 6 µM

COc1ccccc1OP(=O)(CO[C@H](C)Cn1cnc2c(N)ncnc21)OC1CSSC[C@@H]1OCc1ccccc1 (some centres unmarked) [Entry 12]
IC50 (HIV-1 (H9IIIB virus); [4]): 1.55 µM | CTG LD50 (CTG LD50 (cytotoxicity)): >39.78 µM
